Literature values as cited in patent publication US10526334B2, “Methods for preparing bis-tetrahydroisoquinoline-containing compounds” (California Institute of Technology, priority 2017, dated 2020).
Like-named read-outs stand apart in the source and are kept apart here.

Assays:
[1] = test system: A549 lung cancer
[2] = test system: A375 melanoma
[3] = not given; remark: listed apart in the source
[4] = test system: DU145 prostate cancer
[5] = test system: HCT116 colon cancer
[6] = read-out: IC50 (A549 lung cancer)

In the case of `COc1c(C)c(OC)c2c(c1O)[C@@H]1[C@@H]3Cc4c(OC)c(C)c(OC)c(O)c4[C@H](CNC(=O)c4ccc5ccccc5n4)N3[C@@H](C#N)[C@H](C2)N1C` [QAD], the IC50 [1, 6] is listed as 4400 pM, the “rodent in vivo half-life” value (rodent) is listed as 0.283 h and the IC50 [2] is listed as 1300 pM.
In the case of `COc1cc2c(cc1O)CCN[C@]21CS[C@@H]2c3c(OC(C)=O)c(C)c4c(c3[C@H](COC1=O)N1[C@@H]2[C@H]2c3c(cc(C)c(OC)c3O)C[C@@H]([C@@H]1O)N2C)OCO4` [Et 743, ecteinascidin 743], the IC50 [1, 6] is listed as 1000 pM, the “t1/2 (human)” value ([3]; human) is listed as 96 to 180 h and the “in vivo half-life (t1/2)” value ([3]; in humans) is listed as 96 to 180 h. For the same molecule, the “in vivo half-life (t1/2)” value (in rodents) was 20 h, the “t1/2 (rodent)” value (rodent) was 20 h and the IC50 [2] was 150 pM.
In the case of `COC1=C(C)C(=O)C2=C(C1=O)[C@@H]1[C@@H]3CC4=C(C(=O)C(OC)=C(C)C4=O)[C@H](COC(C)=O)N3[C@@H](O)[C@H](C2)N1C` [Jorumycin, jorumycin], the IC50 ([1]; read-out: IC50 vs. A549 lung cancer) is given as 240 pM, the IC50 [4] is given as 490 pM and the IC50 [5] is given as 570 pM.
